These molecules were tested on rabbit skeletal myofibrils (fast skeletal myofibrils) (assay: Activation of fast skeletal myofibrils (PUMA assay, AC1.4)). Settings: calcium at pCa25, AC1.4 = concentration at which the compound increased the enzymatic activity.
Format: biochemical
Experimental: Preparation of fast skeletal myofibrils: Rabbit skeletal myofibrils were prepared based upon the method of Herrmann et al. (Biochem. 32(28):7255-7263(1993). Myofibrils were prepared from rabbit psoas muscle purchased from Pel-Freez Biologicals (Arkansas) within 2 days of ordering, stored on ice. Minced muscle was homogenized in 10 volumes of ice-cold “standard” buffer (50 mM Tris, pH 7.4, 0.1 M KOAc, 5 mM KCl, 2 mM dithiothreitol (DTT), 0.2 mM phenylmethylsulfonyl fluoride (PMSF), 10 μM leupeptin, 5 μM pepstatin, and 0.5 mM sodium azide) containing 5 mM ethylenediaminetetraacetic acid (EDTA) and 0.5% Triton X-100 using an Omni-Macro homogenizer. Myofibrils were recovered by low speed centrifugation (3000 rpm for 10 minutes) and washed 2 times in the Triton X-100 containing buffer to ensure removal of cellular membrane. Following the Triton washes, myofibrils were washed 3 times in “standard” buffer containing 2 mM magnesium acetate. A final wash in assay buffer (12 mM piperazine-1,4-bis(2-ethanesulfonic acid) (PIPES), pH 6.8, 60 mM KCl, 1 mM DTT) was performed and brought to 10% sucrose for flash freezing in liquid nitrogen and storage at −80° C.
Activation of Fast Skeletal Myofibrils: Fast fiber activators were identified by measuring the enzymatic activity of muscle myofibril preparations using the proprietary PUMA (trademark) (see, e.g., U.S. Pat. Nos. 6,410,254, 6,743,599, 7,202,051, and 7,378,254) assay system. Myofibril preparations consisted of rabbit skeletal muscle (approximately 90% fast fibers) that had been mechanically homogenized and washed with a detergent (Triton X-100) to remove cellular membranes. This preparation retained all of the sarcomeric components in a native conformation and the enzymatic activity was still regulated by calcium. Compounds were tested using a myofibril suspension and a level of calcium sufficient to increase enzymatic activity of the myofibrils to 25% of their maximal rate (termed pCa25). Enzymatic activity was tracked via a pyruvate kinase and lactate dehydrogenase-coupled enzyme system. This assay regenerates myosin-produced ADP into ATP by oxidizing NADH, producing an absorbance change at 340 nm. The buffering system was 12 mM PIPES, 2 mM MgCl2, 1 mM DTT at pH 6.8 (PM12 buffer). […] In Table 9, “Example Compound” refers to the compound labeled with the same number in Table 2.
CC[C@H](C)[C@H]1C(=O)Nc2cc(F)ccc2CN1C(=O)NC [Compound 77, (S)-3-((S)-sec-butyl)-8-fluoro-N-methyl-2-oxo-1,2,3,5-tetrahydro-4H-benzo[e][1,4]diazepine-4-carboxamide] gave an AC1.4 of 0.19 µM.
With CC[C@H](C)[C@H]1C(=O)Nc2c(F)cccc2CN1C(=O)NC [Compound 78, (S)-3-((S)-sec-butyl)-9-fluoro-N-methyl-2-oxo-1,2,3,5-tetrahydro-4H-benzo[e][1,4]diazepine-4-carboxamide] the AC1.4 was 0.50 µM.
CC[C@H](C)[C@H]1C(=O)Nc2c(F)cccc2CN1C(=O)N1CC(O)C1 [Compound 79, (S)-3-((S)-sec-butyl)-9-fluoro-4-(3-hydroxyazetidine-1-carbonyl)-1,3,4,5-tetrahydro-2H-benzo[e][1,4]diazepin-2-one] was tested, and the AC1.4 was 0.32 µM.
Molecule CC[C@H](C)[C@H]1C(=O)Nc2cncc(F)c2CN1C(=O)c1cnn(C)c1 [Compound 80, (S)-3-((S)-sec-Butyl)-6-fluoro-4-(1-methyl-1H-pyrazole-4-carbonyl)-1,3,4,5-tetrahydro-2H-pyrido[3,4-e][1,4]diazepin-2-one] has an AC1.4 of 0.47 µM.
With CC[C@H](C)[C@H]1C(=O)Nc2cncc(C)c2CN1C(N)=O [Compound 81, (S)-3-((S)-sec-butyl)-6-methyl-2-oxo-1,2,3,5-tetrahydro-4H-pyrido[3,4-e][1,4]diazepine-4-carboxamide] the AC1.4 was 3.80 µM.
CC[C@H](C)[C@H]1C(=O)Nc2ccccc2CN1C(=O)c1cc2cnccc2[nH]1 [Compound 83, (S)-3-((S)-sec-butyl)-4-(1H-pyrrolo[3,2-c]pyridine-2-carbonyl)-1,3,4,5-tetrahydro-2H-benzo[e][1,4]diazepin-2-one] was tested, and the AC1.4 was 0.03 µM.
With CC[C@H](C)[C@H]1C(=O)Nc2ccccc2CN1C(=O)c1ccn(C)n1 [Compound 84, (S)-3-((S)-sec-butyl)-4-(1-methyl-1H-pyrazole-3-carbonyl)-1,3,4,5-tetrahydro-2H-benzo[e][1,4]diazepin-2-one] the AC1.4 was 0.09 µM.
With CC[C@H](C)[C@H]1C(=O)Nc2ccccc2CN1C(=O)c1ccc(C(N)=O)[nH]1 [Compound 85, 5-((S)-3-((S)-sec-butyl)-2-oxo-2,3,4,5-tetrahydro-1H-benzo[e][1,4]diazepine-4-carbonyl)-1H-pyrrole-2-carboxamide] the AC1.4 was 0.01 µM.
In the case of CC[C@H](C)[C@H]1C(=O)Nc2ccccc2CN1C(=O)[C@H](C)O [Compound 86, (S)-3-((S)-sec-butyl)-4-((S)-2-hydroxypropanoyl)-1,3,4,5-tetrahydro-2H-benzo[e][1,4]diazepin-2-one], the AC1.4 is reported as 1.81 µM.
For CC[C@H](C)[C@H]1C(=O)Nc2ccccc2CN1/C(=N/C#N)NC [Compound 87, (S,E)-3-((S)-sec-butyl)-N′-cyano-N-methyl-2-oxo-1,2,3,5-tetrahydro-4H-benzo[e][1,4]diazepine-4-carboximidamide], the AC1.4 was 0.07 µM.
CC(C)[C@H]1C(=O)Nc2ccccc2CN1c1nccc(=O)[nH]1 [Compound 88, (S)-3-isopropyl-4-(6-oxo-1,6-dihydropyrimidin-2-yl)-1,3,4,5-tetrahydro-2H-benzo[e][1,4]diazepin-2-one] was tested, and the AC1.4 was 1.22 µM.
CC[C@H](C)[C@H]1C(=O)Nc2ccccc2CN1S(=O)(=O)c1ccc(F)cc1 [Compound 89, (S)-3-((S)-sec-butyl)-4-((4-fluorophenyl)sulfonyl)-1,3,4,5-tetrahydro-2H-benzo[e][1,4]diazepin-2-one] was tested, and the AC1.4 was 0.18 µM.
CC(=O)N1Cc2ccccc2NC(=O)[C@@H]1C1CCCCCC1 [Compound 91, (S)-4-acetyl-3-cycloheptyl-1,3,4,5-tetrahydro-2H-benzo[e][1,4]diazepin-2-one] was tested, and the AC1.4 was 0.08 µM.
For O=C1Nc2ccccc2CN(C(=O)CO)[C@H]1C1CCCCC1 [Compound 92, (S)-3-cyclohexyl-4-(2-hydroxyacetyl)-1,3,4,5-tetrahydro-2H-benzo[e][1,4]diazepin-2-one], the AC1.4 was 0.40 µM.
CC[C@H](C)[C@H]1C(=O)Nc2ccccc2CN1C(=O)Nc1ccc(=O)n(C)c1 [Compound 93, (S)-3-((S)-sec-butyl)-N-(1-methyl-6-oxo-1,6-dihydropyridin-3-yl)-2-oxo-1,2,3,5-tetrahydro-4H-benzo[e][1,4]diazepine-4-carboxamide] gave an AC1.4 of 0.13 µM.
Work on CC[C@H](C)[C@H]1C(=O)Nc2ccccc2CN1C(=O)Nc1cccn(C)c1=O [Compound 94, (S)-3-((S)-sec-butyl)-N-(1-methyl-2-oxo-1,2-dihydropyridin-3-yl)-2-oxo-1,2,3,5-tetrahydro-4H-benzo[e][1,4]diazepine-4-carboxamide] yielded an AC1.4 of 0.15 µM.
CC[C@H](C)[C@H]1C(=O)Nc2ccccc2CN1C(=O)c1c[nH]c(=O)[nH]1 [Compound 95, (S)-3-((S)-sec-butyl)-4-(2-oxo-2,3-dihydro-1H-imidazole-4-carbonyl)-1,3,4,5-tetrahydro-2H-benzo[e][1,4]diazepin-2-one] showed an AC1.4 of 0.04 µM.
CC[C@H](C)[C@H]1C(=O)Nc2ccccc2CN1C(=O)Nc1cccnc1 [Compound 99, (S)-3-((S)-sec-butyl)-2-oxo-N-(pyridin-3-yl)-1,2,3,5-tetrahydro-4H-benzo[e][1,4]diazepine-4-carboxamide] showed an AC1.4 of 0.05 µM.
For CC[C@H](C)[C@H]1C(=O)Nc2ccccc2CN1C(=O)Nc1cn[nH]c1 [Compound 101, (S)-3-((S)-sec-butyl)-2-oxo-N-(1H-pyrzol-4-yl)-1,2,3,5-tetrahydro-4H-benzo[e][1,4]diazepine-4-carboxamide], the AC1.4 was 0.05 µM.
CC[C@H](C)[C@H]1C(=O)Nc2ccccc2CN1C(=O)N1CC(CO)C1 [Compound 102, (S)-3-((S)-sec-butyl)-4-(3-(hydroxymethyl)azetidine-1-carbonyl)-1,3,4,5-tetrahydro-2H-benzo[e][1,4]diazepin-2-one] gave an AC1.4 of 0.37 µM.
CC[C@H](C)[C@H]1C(=O)Nc2ccccc2CN1C(=O)N1CC[C@H]1C(N)=O [Compound 103, (S)-1-((S)-3-((S)-sec-butyl)-2-oxo-2,3,4,5-tetrahydro-1H-benzo[e][1,4]diazepine-4-carbonyl)azetidine-2-carboxamide] was tested, and the AC1.4 was 1.22 µM.
CC[C@H](C)[C@H]1C(=O)Nc2ccccc2CN1C(=O)c1c[nH]cn1 [Compound 104, (S)-3-((S)-sec-butyl)-4-(1H-imidazole-4-carbonyl)-1,3,4,5-tetrahydro-2H-benzo[e][1,4]diazepin-2-one] showed an AC1.4 of 0.08 µM.
In the case of CC[C@H](C)[C@H]1C(=O)Nc2ccccc2CN1C(=O)c1ccn[nH]1 [Compound 105, (S)-3-((S)-sec-butyl)-4-(1H-pyrazole-5-carbonyl)-1,3,4,5-tetrahydro-2H-benzo[e][1,4]diazepin-2-one], the AC1.4 is reported as 0.10 µM.
With CC[C@H](C)[C@H]1C(=O)Nc2ccccc2CN1C(=O)[C@@H]1CCCO1 [Compound 106, (S)-3-((S)-sec-butyl)-4-((S)-tetrahydrofuran-2-carbonyl)-1,3,4,5-tetrahydro-2H-benzo[e][1,4]diazepin-2-one] the AC1.4 was 0.89 µM.
CC[C@H](C)[C@H]1C(=O)Nc2ccccc2CN1C(=O)[C@H]1CCCO1 [Compound 107, (S)-3-((S)-sec-butyl)-4-((R)-tetrahydrofuran-2-carbonyl)-1,3,4,5-tetrahydro-2H-benzo[e][1,4]diazepin-2-one] showed an AC1.4 of 0.29 µM.
CC[C@H](C)[C@H]1C(=O)Nc2ccccc2CN1C(=O)c1cnccn1 [Compound 108, (S)-3-((S)-sec-butyl)-4-(pyrazine-2-carbonyl)-1,3,4,5-tetrahydro-2H-benzo[e][1,4]diazepin-2-one] gave an AC1.4 of 0.19 µM.
Work on CC[C@H](C)[C@H]1C(=O)Nc2ccccc2CN1C(=O)c1cnc(C(N)=O)cn1 [Compound 109, 5-((S)-3-((S)-sec-butyl)-2-oxo-2,3,4,5-tetrahydro-1H-benzo[e][1,4]diazepine-4-carbonyl)pyrazine-2-carboxamide] yielded an AC1.4 of 0.17 µM.
With CC[C@H](C)[C@H]1C(=O)Nc2ccccc2CN1C(=O)CS(N)(=O)=O [Compound 110, 2-((S)-3-((S)-sec-butyl)-2-oxo-1,2,3,5-tetrahydro-4H-benzo[e][1,4]diazepin-4-yl)-2-oxoethane-1-sulfonamide] the AC1.4 was 1.36 µM.
With CC[C@H](C)[C@H]1C(=O)Nc2ccccc2CN1C(=O)CS(C)(=O)=O [Compound 111, (S)-3-((S)-sec-butyl)-4-(2-(methylsulfonyl)acetyl)-1,3,4,5-tetrahydro-2H-benzo[e][1,4]diazepin-2-one] the AC1.4 was 4.90 µM.
Molecule CC[C@H](C)[C@H]1C(=O)Nc2ccccc2CN1/C(N)=N/S(C)(=O)=O [Compound 112, (S,E)-3-((S)-sec-butyl)-N′-(methylsulfonyl)-2-oxo-1,2,3,5-tetrahydro-4H-benzo[e][1,4]diazepine-4-carboximidamide] has an AC1.4 of 0.81 µM.

From patent US12441691B2 (Cytokinetics, Inc., priority 2020, dated 2025)
